# Test results from patent publication US20260251650A1, “LATERAL FLOW DEVICE FOR […]'S DISEASE USING THE T14 PEPTIDE” (Neuro-Bio Ltd, priority 2022, published 2026).
# What was measured:
# [1] = system: anti-T14 antibodies (conjugate and test line); experiment: Sandwich lateral flow test (half dipstick), peptide detection; format: binding, rabbit; settings: peptide at 0.1 mg/ml, FIG. 11
# Description: (§1) The detector reagent was a 40 nm gold particle which is passively conjugated to the antibodies. Conjugates were prepared for: AB16 (rabbit polyclonal), AB117 (rabbit monoclonal) and AB104 (rabbit monoclonal).
# (§2) In this format, a gold conjugate is in liquid form (in the well) rather than dry enabling high throughput of the test conditions. The test line is “dotted” onto the membrane by pipette to facilitate evaluation of a range of conditions.
# (§3) • A) Inhibition Assay: T14 peptide • T30 peptide • B) Sandwich Assay: Rabbit polyclonal, AB16 • Rabbit monoclonal, AB117 • Rabbit monoclonal, AB104 • Rabbit monoclonal, AB102
# Each antibody was “dotted” onto CN180 membrane (1 μl neat, i.e. 1 mg/ml, concentration) and the membrane dried for 15 mins at 37° C. The goat anti-rabbit antibody was applied to the membrane as a control line. Conjugate and test line antibody combinations were then evaluated in a matrix study in the lateral flow format.
# • (i) 10 μl peptide (either T14 or T30 at 0.1 mg/ml) and 10 μl TBST (Tris buffered saline 1% Tween 20) added to Well 1; • (ii) The dipstick was added to Well 1; • (iii) The dipstick was run to completion (no liquid remaining); • (iv) The dipstick was added to Well 2 containing 20 μl conjugate; • (v) The dipstick was run to completion (no liquid remaining); and • (vi) The dipstick was added to Well 3 containing 20 μl TBST.
# [2] = system: anti-T14 antibody 40 nm gold conjugates; experiment: Inhibition lateral flow test (half dipstick), peptide dotted on membrane; format: binding, rabbit; settings: peptide dotted at 1, 0.5 and 0.25 mg/ml on CN180 membrane, FIG. 10
# Description: as §1, §2
# The nitrocellulose membrane was CN180.
# as §3
# Peptide (T14 or T30) was diluted to 1, 0.5 and 0.25 mg/ml in deionised water. The peptide was “dotted” onto CN180 nitrocellulose membrane (1 μl at each concentration) and the membrane dried for 15 minutes at 37° C. The goat anti-rabbit antibody was applied to the membrane as a control line.
# • (i) 20 μl gold conjugate (neat) and 20 μl TBST (Tris buffered saline 1% Tween 20) added to Well 1; • (ii) The dipstick was added to Well 1; • (iii) The dipstick was run to completion (no liquid remaining); and • (iv) The dipstick was added to Well 2 containing 20 μl TBST only to wash the test strip.
Sequence,detection of peptide by sandwich LFT [1],detection of peptide by inhibition LFT [2]
"AEFHRWSSYMVHWK (listed as Homo sapiens) [T14, 14 amino acid peptide derived from the C-terminus of acetylcholinesterase; biomarker]",able to detect,able to detect
"KAEFHRWSSYMVHWKNQFDHYSKQDRCSDL (KAEFHRWSSYMVHWKNQFHDYSKQDRCSDL; listed as Homo sapiens) [T30, last 30 amino acid residues of tailed acetylcholinesterase]",able to detect,able to detect
